{"source": "patent US6905706B2", "about": "“Medicinal herbal extract carpediol for treating depression” (Swedish Herbal Institute, priority 2002, dated 2005)", "experiment": "Effect of co-administered extracts on the pharmacokinetics of theophylline in rats", "conditions": "male, Wistar, rat, in vivo; for Cmax: Cmax of Theophylline; for AUC(0-inf): AUC0-∞ of Theophylline; for MRT: MRT of Theophylline", "description": "Carpediol spissum (Batch No Ex 20404); Swedish Herbal Institute, Gothenburg, Sweden) as described above in Example 1. […] It was analyzed for purity by HPLC, Capillary electrophoresis, ^1H-NMR and ^13C-NMR. • (e) Internal standard: Methyl-4-hydroxybenzoate 99%, F.W. 152.15 Aldrich. • (f) Water, demonized and distilled. • (g) Water for High Performance Capillary Electrophoresis (HPCE), HEWLETT-PACKARD. • (h) Buffer pH=9.3 for HPCE (50 mM Borate). • (i) 0.1N Sodium Hydroxide Solution for HPCE. • (j) Chloroform HPLC grade. • (k) 2-Propanol spectrophotometric grade. • (l) Methanol Chromasorv.\nAnimals—In this study, 144 time-mated male Wistar rats were used. Breeder: Institute of Fine Organic Chemistry of the National Academy of Science, Yerevan. The initial weight of the animals: 130-170 g (mean weight 149.93±12.4 g). […] All animals were clinically examined upon arrival and any animal showing signs of abnormality or disease was excluded. Animals considered unsuitable for the study were replaced before the start. No animal was replaced following the start of the study.\nDosage and Administration—An appropriate amount of herbal extract was dissolved in distilled water and given at 10:00-10:30 am by oral gavage. Suspensions were shaken gently before oral administration. Suspensions were prepared fresh every day. Control animals were given an appropriate volume of drinking water. Blood samples from rats receiving the carrier only were also analyzed.\nGroups of six animals were treated orally with water (10 ml×2 times per day) for three days. 60 minutes after last administration of water, a solution of Aminophylline (10 ml/kg) was given to each animal in dose of 240 mg/kg (corresponding to 192 mg/kg of Theophylline) and blood samples were taken 0.25, 0.5, 1.0, 2.0, 4.0, 6.0 and 8.0 hours after the theophylline administration. A separate group of animals was used for each time point.\nIt was administered orally in a volume of 10 ml/kg of body weight. Freshly prepared extract was administered two times daily for 3 consecutive days. Single dose—25 mg/kg, daily dose—50 mg/kg. 60 minutes after last administration, a water solution of Aminophylline (10 ml/kg) was given to each animal in dose of 240 mg/kg (corresponding to 192 mg/kg of Theophylline) and blood samples were taken 0.25, 0.5, 1.0, 2.0, 4.0, 6.0 and 8.0 hours after the theophylline administration. A separate group of animals was used for each time point.\nOne tablet of Jarsin 300 was suspended in 10 ml of water and administered two times daily for 3 consecutive days. 60 minutes after last administration, water solution of Aminophylline (10 ml/kg) was given to each animal in dose of 240 mg/kg (corresponding to 192 mg/kg of Theophylline) and blood samples were taken 0.25, 0.5, 1.0, 2.0, 4.0, 6.0 and 8.0 hours after the theophylline administration. A separate group of animals was used for each time point.\nSampling of blood and sample preparation—Animals were sacrificed by laboratory guillotine. Following decapitation, blood was collected separately in centrifuge tubes and centrifuged at 3000 rpm for 10 min. Blood serum was separated and 50 μl was taken for theophylline assay. Conservation of the samples: the centrifuge tubes were closed with caps, frozen and stored in a freezer for 1-3 days prior to bio-assay.\nAnalytical Method: Capillary Electrophoresis—A modified capillary electrophoresis method was used, using an internal standard and as a mobile phase 50 mM borate buffer (pH 9.3) without SDS.\nPre-assay preparation—The Ramzan et al. method (52) of extraction of theophylline from serum was modified as follows. 50 μl of blood serum was added to 10 μl of an internal standard methanol solution (methyl-paraben, 60 μg/ml) in centrifuge tube to obtain final concentration of methyl paraben 10 μg/ml. The solution was vortexed vigorously for 10 sec and 1 ml of solvent system of isopropanol. and chloroform in a 5:95 ratio was added for extraction.", "key": {"[1]": {"conditions": "Concentration of Theophylline in Rat Serum, Mean, Group 2 (CRE pretreatment 3 days), aminophylline 240 mg/kg p.o., mean n=6"}, "[2]": {"conditions": "Concentration of Theophylline in Rat Serum, Mean, Group 3 (Jarsin 300 pretreatment 3 days), aminophylline 240 mg/kg p.o., mean n=6"}, "[3]": {"conditions": "po, 240 mg/kg, Group 2 (CRE pretreatment), rats, calculated by mean concentrations"}, "[4]": {"conditions": "po, 240 mg/kg, Mean, Group 1 (water control), rats, mean of 6 series (column A)"}, "[5]": {"conditions": "po, 240 mg/kg, Mean, Group 2 (CRE pretreatment), rats, mean of 6 series (column A)"}, "[6]": {"conditions": "po, 240 mg/kg, Mean, Group 3 (Jarsin 300 pretreatment), rats, mean of 6 series (column A)"}, "[7]": {"conditions": "po, Group 3 (Jarsin 300 pretreatment), rats, calculated by mean concentrations"}, "[8]": {"conditions": "po, Mean, Group 3 (Jarsin 300 pretreatment), rats, mean of 6 series (column A)"}, "[9]": {"conditions": "po, Mean, Group 2 (CRE pretreatment), rats, mean of 6 series (column A)"}}}
{"smiles": "Cn1c(=O)c2[nH]cnc2n(C)c1=O", "note": "[Theophylline, 1,3-dimethylxantin]", "values": [{"measurement": "concentration at 480 min", "setting": "240 mg/kg, Level of theophylline in serum after 480 minutes, Group 1 (water control), rats", "result": "~51000", "unit": "ng/mL"}, {"measurement": "Cmax", "setting": "Group 2 (CRE pretreatment), rats, calculated by mean concentrations, 60 minutes", "result": 142000, "unit": "ng/mL"}, {"measurement": "Cmax", "setting": "Group 3 (Jarsin 300 pretreatment), rats, calculated by mean concentrations, 60 minutes", "result": 41600, "unit": "ng/mL"}, {"measurement": "concentration at 60 min", "setting": "Concentration of Theophylline in Rat Serum, Group 2 (CRE pretreatment 3 days), aminophylline 240 mg/kg p.o., single rat", "result": 109000, "unit": "ng/mL"}, {"measurement": "concentration at 15 min", "setting": "Concentration of Theophylline in Rat Serum, Group 3 (Jarsin 300 pretreatment 3 days), aminophylline 240 mg/kg p.o., single rat", "result": 6640, "unit": "ng/mL"}, {"measurement": "concentration at 15 min", "setting": "[1]", "result": 128000, "unit": "ng/mL"}, {"measurement": "concentration at 30 min", "setting": "[1]", "result": 138000, "unit": "ng/mL"}, {"measurement": "concentration at 60 min", "setting": "[1]", "result": 142000, "unit": "ng/mL"}, {"measurement": "concentration at 120 min", "setting": "[1]", "result": 130000, "unit": "ng/mL"}, {"measurement": "concentration at 240 min", "setting": "[1]", "result": 103000, "unit": "ng/mL"}, {"measurement": "concentration at 360 min", "setting": "[1]", "result": 71000, "unit": "ng/mL"}, {"measurement": "concentration at 480 min", "setting": "Concentration of Theophylline in Rat Serum, Mean, Group 2 (CRE pretreatment 3 days), aminophylline 240 mg/kg p.o., 480 min, mean n=6", "result": 31800, "unit": "ng/mL"}, {"measurement": "concentration at 15 min", "setting": "[2]", "result": 5170, "unit": "ng/mL"}, {"measurement": "concentration at 30 min", "setting": "[2]", "result": 25500, "unit": "ng/mL"}, {"measurement": "concentration at 60 min", "setting": "[2]", "result": 41600, "unit": "ng/mL"}, {"measurement": "concentration at 120 min", "setting": "[2]", "result": 31100, "unit": "ng/mL"}, {"measurement": "concentration at 240 min", "setting": "[2]", "result": 16500, "unit": "ng/mL"}, {"measurement": "concentration at 360 min", "setting": "[2]", "result": 15700, "unit": "ng/mL"}, {"measurement": "concentration at 480 min", "setting": "Concentration of Theophylline in Rat Serum, Mean, Group 3 (Jarsin 300 pretreatment 3 days), aminophylline 240 mg/kg p.o., 480 min, mean n=6", "result": 9280, "unit": "ng/mL"}, {"measurement": "concentration at 480 min", "setting": "Theophylline concentration in serum after 480 minutes, Group 2 (rats treated with CRE)", "result": "~32000", "unit": "ng/mL"}, {"measurement": "concentration at 480 min", "setting": "Theophylline concentration in serum after 480 minutes, Group 3 (rats treated with Jarsin 300)", "result": "~9300", "unit": "ng/mL"}, {"measurement": "AUC(0-inf)", "setting": "po, 240 mg/kg, Group 1 (water control), rats, single series", "result": 1090, "unit": "µg·h/mL"}, {"measurement": "AUC(0-inf)", "setting": "[3]", "result": 956, "unit": "µg·h/mL"}, {"measurement": "AUC(0-inf)", "setting": "po, 240 mg/kg, Mean, Group 1 (water control), rats, mean of 6 series", "result": 1020, "unit": "µg·h/mL"}, {"measurement": "AUC(0-inf)", "setting": "[4]", "result": "1020 ± 109", "unit": "µg·h/mL"}, {"measurement": "AUC(0-inf)", "setting": "[5]", "result": "920 ± 128", "unit": "µg·h/mL"}, {"measurement": "AUC(0-inf)", "setting": "po, 240 mg/kg, Mean, Group 3 (Jarsin 300 pretreatment), rats, mean of 6 series", "result": 214, "unit": "µg·h/mL"}, {"measurement": "Cmax", "setting": "[4]", "result": 195000, "unit": "ng/mL"}, {"measurement": "Cmax", "setting": "[5]", "result": "169000 ± 14400", "unit": "ng/mL"}, {"measurement": "Cmax", "setting": "[6]", "result": 43900, "unit": "ng/mL"}, {"measurement": "MRT", "setting": "po, 240 mg/kg, Group 1 (water control), rats, calculated by mean concentrations", "result": 6.83, "unit": "h"}, {"measurement": "MRT", "setting": "[3]", "result": 5.14, "unit": "h"}, {"measurement": "MRT", "setting": "[4]", "result": 6.62, "unit": "h"}, {"measurement": "MRT", "setting": "[5]", "result": "4.45 ± 0.696", "unit": "h"}, {"measurement": "MRT", "setting": "[6]", "result": 5.44, "unit": "h"}, {"measurement": "half-life", "setting": "po, 240 mg/kg, T1/2 of Theophylline, Group 1 (water control), rats, calculated by mean concentrations", "result": 4.66, "unit": "h"}, {"measurement": "half-life", "setting": "po, 240 mg/kg, T1/2 of Theophylline, Group 2 (CRE pretreatment), rats, calculated by mean concentrations", "result": 3.39, "unit": "h"}, {"measurement": "half-life", "setting": "po, 240 mg/kg, T1/2 of Theophylline, Mean, Group 2 (CRE pretreatment), rats, mean of 6 series (column A)", "result": "2.81 ± 0.404", "unit": "h"}, {"measurement": "half-life", "setting": "po, 240 mg/kg, t1/2 of Theophylline, Mean, Group 1 (water control), rats, mean of 6 series (column A)", "result": 4.5, "unit": "h"}, {"measurement": "half-life", "setting": "po, 240 mg/kg, t1/2 of Theophylline, Mean, Group 3 (Jarsin 300 pretreatment), rats, mean of 6 series (column A)", "result": 3.55, "unit": "h"}, {"measurement": "AUC(0-inf)", "setting": "po, Group 1 (water control), rats, calculated by mean concentrations", "result": 1030, "unit": "µg·h/mL"}, {"measurement": "AUC(0-inf)", "setting": "[7]", "result": 208, "unit": "µg·h/mL"}, {"measurement": "AUC(0-inf)", "setting": "po, Mean, Group 2 (CRE pretreatment), rats, mean of 6 series", "result": 920, "unit": "µg·h/mL"}, {"measurement": "AUC(0-inf)", "setting": "[8]", "result": "214 ± 31", "unit": "µg·h/mL"}, {"measurement": "Cmax", "setting": "po, Group 2 (CRE pretreatment), rats, single series", "result": 158000, "unit": "ng/mL"}, {"measurement": "Cmax", "setting": "po, Group 3 (Jarsin 300 pretreatment), rats, calculated by mean concentrations, 60 minutes", "result": 41600, "unit": "ng/mL"}, {"measurement": "Cmax", "setting": "[9]", "result": 169000, "unit": "ng/mL"}, {"measurement": "Cmax", "setting": "[8]", "result": "43900 ± 8490", "unit": "ng/mL"}, {"measurement": "MRT", "setting": "[7]", "result": 5.36, "unit": "h"}, {"measurement": "MRT", "setting": "[9]", "result": 4.45, "unit": "h"}, {"measurement": "MRT", "setting": "[8]", "result": "5.44 ± 0.559", "unit": "h"}, {"measurement": "half-life", "setting": "po, T1/2 of Theophylline, Group 3 (Jarsin 300 pretreatment), rats, calculated by mean concentrations", "result": 3.43, "unit": "h"}, {"measurement": "half-life", "setting": "po, T1/2 of Theophylline, Mean, Group 2 (CRE pretreatment), rats, mean of 6 series (column A)", "result": 2.81, "unit": "h"}, {"measurement": "half-life", "setting": "po, t1/2 of Theophylline, Mean, Group 3 (Jarsin 300 pretreatment), rats, mean of 6 series (column A)", "result": "3.55 ± 0.549", "unit": "h"}]}
